From patent publication US6287834A, “Characterization and use of an isolated uridine diphospho-glucuronosyltransferase” (Endorecherche, Inc., priority 1999, dated 2001) come the findings set out here.

Data set [1] addresses T1, UGT2B17 (Homo sapiens, UniProt O75795).
T1 construct: cell homogenate
T1 sequence (O75795 24-530): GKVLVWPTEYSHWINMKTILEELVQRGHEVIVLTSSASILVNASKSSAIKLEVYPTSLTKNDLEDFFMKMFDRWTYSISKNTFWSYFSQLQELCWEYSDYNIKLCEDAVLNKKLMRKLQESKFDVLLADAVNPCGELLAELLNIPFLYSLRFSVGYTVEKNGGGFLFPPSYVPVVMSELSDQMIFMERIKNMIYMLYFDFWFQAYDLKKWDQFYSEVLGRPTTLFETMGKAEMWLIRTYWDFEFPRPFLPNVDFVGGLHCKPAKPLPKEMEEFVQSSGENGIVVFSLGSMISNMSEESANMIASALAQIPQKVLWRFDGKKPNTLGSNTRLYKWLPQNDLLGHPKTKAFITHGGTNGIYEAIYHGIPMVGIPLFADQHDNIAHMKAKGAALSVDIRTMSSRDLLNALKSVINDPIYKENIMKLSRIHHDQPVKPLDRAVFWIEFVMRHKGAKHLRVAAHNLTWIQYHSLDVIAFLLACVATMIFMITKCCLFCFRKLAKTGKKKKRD
Put plainly: Second glucuronidation assay to determine the amount of enzyme activity (glucuronide formation). The format is biochemical. The note with it: for identified as major endogenous substrates of UGT2B17: 3α and 17β hydroxyandrogens; for Glucuronide Formation (pmol/min/mg protein): HK293-UGT2B17 cell homogenate, 6 μM [14C]UDPGA and 494 μM unlabelled UDPGA, 15 minutes at 30° C. The protocol: Stable Expression of UGT2B17. Human kidney 293 cells were grown in Dubelcco's modified Eagle's medium containing 4.5 g/l glucose, 10 mM HEPES, 110 μg/ml sodium pyruvate, 100 IU of penicillin/ml, 100 μg/ml of streptomycin and 10% fetal bovine serum (FBS) in a humidified incubator, with an atmosphere of 5% CO2, at 37° C. 5 μg of pBK-CMV-UGT2B17 was used to transfect HK293 cells using Lipofectin and following the manufacturer's instructions (Gibco BRL: Burlington, Canada). Forty-eight hours after transfection, stable transfectants were selected in a media containing 800 μg/ml G418.
Glucuronidation Assay Using Cell Homogenates. HK293 cells expressing UGT2B17 were suspended in a Tris buffered saline containing 0.5 mM DTT and were homogenized using a Brinkman polytron. Enzyme assays were performed using [^14 C] UDP-glucuronic acid ([…]), 500 μM of the various aglycones and 150 μg of protein from cell homogenates in 50 mM Tris-HCl (pH 7.5), 10 mM MgCl2, 100 μg/ml phosphatidylcholine and 8.5 mM saccharolactone in a final volume of 100 μl. The enzyme assays were terminated by adding 100 μl of methanol, and the tubes were centrifuged at 14,000 g for 1 minute to remove the precipitated proteins. 100 μl of the aqueous phase was applied onto thin layer chromatography (TLC) plates (0.25 mm thick silica gel, 60 F254 S) (EM Science, Gibbstown, N.J.) and then was chromatographed in a solvent of toluene:methanol:acetic acid in the proportion of 7:3:1. The TLC plates were exposed for four days and the extent of glucuronidation was measured by Phosphorimager (Molecular Dynamics).
In the second assay, the substrate was exposed to […]

For data set [2], the target named is T1, UGT2B17. As to the kind of experiment: Kinetic analysis of UGT2B17 specificity (Lineweaver-Burk plots, FIGS. 4A and 4B). The format is biochemical. On the procedure: to FIGS. 4A and 4B are Lineweaver-Burk plots of ADT and DHT, and 3α-DIOL and testosterone (TESTO), respectively; and
A kinetic analysis was also performed to further characterize the specificity of UGT2B17 for ADT, DHT, 3α-DIOL and testosterone.

Substrate in data set [3]: O=C(O)[C@H]1O[C@H](OP(=O)(O)OP(=O)(O)OC[C@H]2O[C@@H](n3ccc(=O)[nH]c3=O)[C@H](O)[C@@H]2O)[C@H](O)[C@@H](O)[C@@H]1O
Put plainly: cells, lysate or membranes. The note with it: other: 30° C., reaction linear for 30 minutes, pH 7.5.

Data set [4] deals with androgen response element reporter in LNCaP cells. Put plainly: Androgen response element reporter construct in LNCaP cells transfected with UGT2B17. In kind it is cell-based, human. The text has this:
Reducing androgen activity with UGT2B17. LNCaP cells were transfected with UGT2B17 in the presence of a reporter construct controlled by an androgen response element so as the expression of the reporter gene is indicative of androgenic activity.

Regarding `C[C@]12CC[C@H](O)C[C@@H]1CC[C@@H]1[C@@H]2CC[C@]2(C)[C@@H](O)CC[C@@H]12` [5α-Androstane-3β,17β-diol], in data set [1], the “identified as major endogenous substrates of UGT2B17” value (“identified” for short) was “major endogenous substrates”.

Consider `C[C@]12CC[C@@H](O)C[C@@H]1CC[C@@H]1[C@@H]2[C@H](O)C[C@]2(C)[C@@H](O)CC[C@@H]12` [5α-Androstane-3α,11α,17β-triol], for which the “Glucuronide Formation (pmol/min/mg protein)” value in data set [1] was 5 pmol/min/mg protein.

Consider `C[C@]12CC[C@@H](O)C[C@H]1CC[C@@H]1[C@@H]2CC[C@]2(C)C(=O)CC[C@@H]12` [Etiocholanolone], for which the “Glucuronide Formation (pmol/min/mg protein)” value in data set [1] amounted to 13 pmol/min/mg protein.

Regarding `C=CCc1ccc(O)c(OC)c1` [Eugenol], the “Glucuronide Formation (pmol/min/mg protein)” value in data set [1] turned out to be 38 pmol/min/mg protein.

Turning to `O=[N+]([O-])c1ccc(O)cc1` [p-nitrophenol], the “Glucuronide Formation (pmol/min/mg protein)” value in data set [1] was 4 pmol/min/mg protein.

Turning to `C[C@]12CC[C@@H](O)C[C@@H]1CC[C@@H]1[C@@H]2[C@@H](O)C[C@]2(C)[C@@H](O)CC[C@@H]12` [5α-Androstane-3α,11β,17β-triol], in data set [1], the “Glucuronide Formation (pmol/min/mg protein)” value is given as 8 pmol/min/mg protein.

Regarding `C[C@]12CCC(=O)C[C@@H]1CC[C@@H]1[C@@H]2CC[C@]2(C)[C@@H](O)CC[C@@H]12` [Dihydrotestosterone], in data set [2], the “affinity of the enzyme based on Km values” (from here on “affinity of the enzyme based”) is recorded as “similar”. In data set [1], the “identified” value was “major endogenous substrates” and the “Glucuronide Formation (pmol/min/mg protein)” value is recorded as 14 pmol/min/mg protein.

As to `C[C@]12CC[C@H]3[C@@H](CC=C4C[C@@H](O)CC[C@@]43C)[C@@H]1CC[C@@H]2O` [Androst-5-ene-3β,17β-diol], in data set [1], the “identified” value is “major endogenous substrates”.

On to `C[C@]12CC[C@@H](O)C[C@@H]1CC[C@@H]1[C@@H]2CC[C@]2(C)[C@@H](O)CC[C@@H]12` [5α-Androstane-3α,17β-diol], for which the “affinity of the enzyme based” value in data set [2] is listed as “similar”. In data set [1], the “identified” value is listed as “major endogenous substrates” and the “Glucuronide Formation (pmol/min/mg protein)” value was 15 pmol/min/mg protein.

On to `C[C@]12CC[C@@H](O)C[C@@H]1CC[C@@H]1[C@@H]2CC[C@]2(C)C(=O)CC[C@@H]12` [Androsterone], for which, in data set [2], the “affinity of the enzyme based” value is on record as “similar”. Moreover, in data set [1], the “identified” value is reported as “major endogenous substrates” and the “Glucuronide Formation (pmol/min/mg protein)” value is 5 pmol/min/mg protein.

With `Oc1ccccc1-c1ccccc1O` [o,o' biphenyl], the “Glucuronide Formation (pmol/min/mg protein)” value in data set [1] is reported as 7 pmol/min/mg protein.

`Oc1ccc(-c2ccc(O)cc2)cc1` [p,p' biphenyl]: in data set [1], the “Glucuronide Formation (pmol/min/mg protein)” value was determined as 5 pmol/min/mg protein.

For the molecule `C[C@]12CC[C@@H](O)C[C@H]1CC[C@@H]1[C@@H]2CC[C@]2(C)[C@@H](O)CC[C@@H]12` [5β-Androstane-3α,17β-diol], the “Glucuronide Formation (pmol/min/mg protein)” value in data set [1] was 14 pmol/min/mg protein.

For `C[C@]12CC[C@H]3[C@@H](CCC4=CC(=O)CC[C@@]43C)[C@@H]1CC[C@@H]2O` [Testosterone], the “affinity of the enzyme based” value in data set [2] is listed as “similar”. In data set [1], the “identified” value was “major endogenous substrates” and the “Glucuronide Formation (pmol/min/mg protein)” value is 9 pmol/min/mg protein.

For the molecule `C[C@H](O)[C@H]1CC[C@H]2[C@@H]3CC[C@H]4C[C@H](O)CC[C@]4(C)[C@H]3CC[C@]12C` [5α-pregnane-3α,20α-diol], the “Glucuronide Formation (pmol/min/mg protein)” value in data set [1] is on record as 8 pmol/min/mg protein.

In the case of `Oc1cccc2ccccc12` [l-naphtol], in data set [1], the “Glucuronide Formation (pmol/min/mg protein)” value was determined as 7 pmol/min/mg protein.

On to `C[C@]12CC[C@@H](O)C[C@H]1CC[C@@H]1[C@@H]2CC[C@]2(C)[C@@H](O)[C@H](O)C[C@@H]12` [5β-Androstane-3α,16α,17β-triol], for which the “Glucuronide Formation (pmol/min/mg protein)” value in data set [1] is listed as 11 pmol/min/mg protein.

B1: UGT2B17 (Homo sapiens) (protein)
chain: GKVLVWPTEYSHWINMKTILEELVQRGHEVIVLTSSASILVNASKSSAIKLEVYPTSLTKNDLEDFFMKMFDRWTYSISKNTFWSYFSQLQELCWEYSDYNIKLCEDAVLNKKLMRKLQESKFDVLLADAVNPCGELLAELLNIPFLYSLRFSVGYTVEKNGGGFLFPPSYVPVVMSELSDQMIFMERIKNMIYMLYFDFWFQAYDLKKWDQFYSEVLGRPTTLFETMGKAEMWLIRTYWDFEFPRPFLPNVDFVGGLHCKPAKPLPKEMEEFVQSSGENGIVVFSLGSMISNMSEESANMIASALAQIPQKVLWRFDGKKPNTLGSNTRLYKWLPQNDLLGHPKTKAFITHGGTNGIYEAIYHGIPMVGIPLFADQHDNIAHMKAKGAALSVDIRTMSSRDLLNALKSVINDPIYKENIMKLSRIHHDQPVKPLDRAVFWIEFVMRHKGAKHLRVAAHNLTWIQYHSLDVIAFLLACVATMIFMITKCCLFCFRKLAKTGKKKKRD
As a reminder, the Km is the concentration of substrate that gives half-maximal velocity. For B1, the Km in data set [3] was 200 µM.

B2: uridine diphospho-glucuronosyltransferase 2B17 (protein)
chain: MSLKWMSVFLLMQLSCYFSSGSCGKVLVWPTEYSHWINMKTILEELVQRGHEVIVLTSSASILVNASKSSAIKLEVYPTSLTKNDLEDFFMKMFDRWTYSISKNTFWSYFSQLQELCWEYSDYNIKLCEDAVLNKKLMRKLQESKFDVLLADAVNPCGELLAELLNIPFLYSLRFSVGYTVEKNGGGFLFPPSYVPVVMSELSDQMIFMERIKNMIYMLYFDFWFQAYDLKKWDQFYSEVLGRPTTLFETMGKAEMWLIRTYWDFEFPRPFLPNVDFVGGLHCKPAKPLPKEMEEFVQSSGENGIVVFSLGSMISNMSEESANMIASALAQIPQKVLWRFDGKKPNTLGSNTRLYKWLPQNDLLGHPKTKAFITHGGTNGIYEAIYHGIPMVGIPLFADQHDNIAHMKAKGAALSVDIRTMSSRDLLNALKSVINDPIYKENIMKLSRIHHDQPVKPLDRAVFWIEFVMRHKGAKHLRVAAHNLTWIQYHSLDVIAFLLACVATMIFMITKCCLFCFRKLAKTGKKKKRD
With B2, the “expression of the reporter gene (indicative of androgenic activity)” value in data set [4] is given as “decreased expression of the reporter gene”.
